From patent US8883841B2, “Oncogenic ras-specific cytotoxic compound and methods of use thereof” (The Board of Regents of the University of Texas System, priority 2005, dated 2014)
pIC50: −log10 of the molar value. “Also recorded” adds a separate entry of the source.

Key:
wild-type MEF = test: Icmt-dependent growth inhibition, wild-type MEF; assay type: cell-based, mouse; details: up to 100 μM
Source text: Oncrasin and Oncrasin Analogs. Chemically, Oncrasin-1 has the same core structure as indole-3-carbinol, a naturally occurring constituent of many plant foods that has been tested for the prevention and treatment of cancer (Brignall, 2001; Kelloff et al., 1996; Chinni et al., 2001). Oncrasin-1 also has structural similarity to sulindac (Taylor et al., 2000; Sun et al., 2002) and lonidamine (Ravagnan et al., 1999; Papaldo et al., 2003), both of which have been evaluated preclinically and clinically for treatment of cancers. […] Oncrasin compounds also bear a indole core structure as the small-molecule inhibitor of isoprenylcysteine carboxylmethyltransferase (Icmt), 2-[5-(3-methylphenyl)-1-octyl-1H-indol-3-yl]acetamide (cysmethynil), which also induces antitumor activity in Ras gene mutant cancer cells (Winter-Vann et al., 2005). […] Both wild-type MEF and Icmt−/− MEF (Bergo et al., 2004) (kindly provided by Dr. S G Young at the University of California, San Francisco) were resistant to Oncrasin-1.

Raf-1 = test: Western blot analysis of Raf-1 expression; assay type: cell-based, human; details: listed as Oncrasin-1
Protocol: Ras Signaling Pathway and Molecular Mechanisms of Oncrasin-induced apoptosis. To investigate molecular mechanisms of apoptosis induction by Oncrasin compounds, levels several proteins that are involved in apoptosis and/or involved in Ras signaling pathways were determined, including Bax, Bik, Bc12, Bcl-XL, Raf-1, B-Raf, Akt, Mst1 and atypical protein kinase C (aPKC) zeta and PKCiota. To study which molecules are affected by Oncrasin treatment, T29, T29Kt1 and H460 cells were treated with Oncrasin-1 at an optimal concentration, around IC60 to IC80 for T29Kt1 and H460 cells. Cell lysates were collected 12 h after the treatment and subjected to Western blot analysis.
Suppression of Raf-1 expression by Oncrasin-1. […] To elucidate the roles of Raf-1 in Oncrasin-induced apoptosis, the inventors evaluated the expression of Raf-1 in H460 cells after treatment with different concentrations of Oncrasin-1. […] Because Raf-1 executes anti-apoptosis function via a variety of pathways. […] However, the resistance to Oncrasin-1 was more prominent in the constitutively active Raf-1-transfected cells than in cells with the wild-type Raf-1 (FIG. 10C and FIG. 10D).

SC35 = test: Antibody staining, subcellular localization of SC35 (spliceosome); assay type: cell-based, human
Source text: (§1) Effects on RNA spliceosome. To investigate the nature of this PKCiota aggregates in the nucleus, the effect of Oncrasin-1 on SC35, a protein required for RNA splicing and assembly of spliceosome (Fu et al., 1992; Vellard et al., 1992), and on Rad51, a homologous DNA recombinase that involves in DNA repair (Benson et al., 1994; Baumann et al., 1996) were studied. […] and DNA repairing are the two important functions executed in the nucleus. In untreated or DMSO-treated cells, SC35 was localized in nucleus as speckles, either diffusely distributed or concentrated as granule clusters (Mistele et al., 1997), whereas Rad51 was more uniformly distributed inside the nucleus. […] This aggregation of SC35 was not observed in Oncrasin resistant T29 cells upon the treatment with Oncrasin-1. […] The effects of Oncrasin on another spliceosome protein, alternative splicing factor/splicing factor 2 (ASF/SF2), was studied (Krainer et al., 1991). […] In the resistant T29 cells, however, such an aggregation is not observed (FIG. 8C).

ASF/SF2 = test: Antibody staining, subcellular localization of ASF/SF2; assay type: cell-based, human
Source text: as §1

[1] = test system: TNFα-mediated NFκB activation; test: Electrophoretic mobility shift assay (EMSA) of NFκB activity; assay type: cell-based, human; details: 12 h, TNFα 1 ng/ml
Protocol: FIGS. 11A-11C Suppression of TNFα-induced NFκB activation. NKκB reporter plasmid assay. T29K cells were transfected with pNFκB-Luc and pCMV-lacZ. 12 h later, the cells were treated with TNFα (1 ng/ml) with or without (FIG. 11A) Oncrasin-1 (10 μM) or (FIG. 11B) Sulindac (10 μm). The luciferase activity was determined at 8 h after the treatment and normalized with beta-gal activity. (FIG. 11C) H460 and T29K cells were treated with DMSO or different concentrations of Oncrasin-1 as indicated for 12 h, with or without TNFα (1 ng/ml). The NFκB activity was analyzed by EMSA.
Suppression of NFκB. In a separated study, the effect of Oncrasin compounds on NF-κB activity was assessed. Nuclear factor-κB (NF-κB)/Rel represents a group of structurally related and evolutionarily conserved transcriptional factors that play critical roles in chronic and acute inflammatory diseases, autoimmune diseases and various type of cancers (Karin and Neriah, 2000; Karin and Karin, 2006; Barnes et al., 1997). In unstimulated cells, most NF-κB/Rel dimers are bound to IκBs and retained in the cytoplasm. Upon a various stimulations, IκBs are phosphorylated and rapidly degraded, releasing NF-κB, which then enters the nucleus and executes transcriptional functions. […] The luciferase activity was determined and normalized for transfection with beta-galactosidase activity. […]

T29Kt1 cells = test: cells; details: Homo sapiens, T29Kt1, read-out: IC50 in T29k cells, Table 1

| Structure (SMILES) | growth inhibition, wild-type MEF (wild-type MEF) | Raf-1 level in H460 cells (Raf-1) | SC35 localization, T29Kt1 cells (SC35) | SC35 aggregation, T29 cells (SC35; Oncrasin resistant cells) | ASF/SF2 localization, T29Kt1 cells (ASF/SF2) | ASF/SF2 aggregation, T29 cells (ASF/SF2; resistant cells) | concentration that effectively suppresses TNFα-mediated NFκB activation, H460 cells [1] [µM] | concentration that effectively suppresses TNFα-mediated NFκB activation, T29Kt1 cells [1] [µM] | pIC50 (T29Kt1 cells) |
| --- | --- | --- | --- | --- | --- | --- | --- | --- | --- |
| O=Cc1cn(Cc2ccc(Cl)cc2)c2ccccc12 [Oncrasin K001, 1H-Indole-3-carboxaldehyde, 1-[(4-chlorophenyl)methyl]-(9CI)] | resistant | dramatically reduces raf-1; also recorded: down regulation; also recorded: dramatically reduced Raf-1 production; also recorded: dramatic reduction in Raf-1 | aggregation of SC35 into several large foci | not observed | induced ASF/SF2 aggregation inside nucleus | not observed | ≥ 1 | ≥ 1 | – |
| OCc1cn(Cc2ccc(Cl)cc2)c2ccccc12 [Oncrasin K060, 1H-Indole-3-methanol, 1-[(4-chlorophenyl)methyl]-] | – | – | – | – | – | – | – | – | 7.10 |
